Laboratory results from patent publication US10913744B2, “LRRK2 inhibitors and methods of making and using the same” (Dana-Farber Cancer Institute, Inc., priority 2015, dated 2021).
Read-outs that look alike come from different tables or passages of the source.

Legend:
MARK1 = MARK1 (Homo sapiens (Human), UniProt Q9P0L2); assay: Dundee profiling
MLK1 = MLK1 (Homo sapiens (Human), UniProt P80192); assay: Dundee profiling
[1] = target: GST-LRRK2[A2016T](1326-2517) (Homo sapiens (Human), UniProt Q5S007, A2016T); assay: Nictide peptide kinase assay, 100 μM ATP; type: biochemical; conditions: 20 μM Nictide
Experimental: (§1) Assay procedures are further discussed in Section 4 herein.
(§2) Samples were washed extensively and the incorporation of [γ-32P]ATP into Nictide was quantified by Cerenkov counting. IC50 values were calculated with GraphPad Prism using non-linear regression analysis.

[2] = target: GST-LRRK2[G2019S](1,326-2,527) (Homo sapiens (Human), UniProt Q5S007, G2019S); assay: Nictide peptide kinase assay, 100 μM ATP; type: biochemical; conditions: 20 μM Nictide
Experimental: as §1, §2

[3] = target: GST-LRRK2[G2019S + A2016T](1,326-2,517) (Homo sapiens (Human), UniProt Q5S007, A2016T/G2019S); assay: Nictide peptide kinase assay, 100 μM ATP; type: biochemical; conditions: 20 μM Nictide
Experimental: as §1, §2

[4] = target: GST-LRRK2(1,326-2,517) wild-type (Homo sapiens (Human), UniProt Q5S007); assay: Nictide peptide kinase assay, 100 μM ATP; type: biochemical; conditions: 20 μM Nictide
Experimental: as §1, §2

MKK7 = MKK7 (Homo sapiens (Human), UniProt O14733); assay: KinomeScan; type: binding; conditions: 1 uM
JNK2 = JNK2 (Homo sapiens (Human), UniProt P45984); assay: KinomeScan; type: binding; conditions: 1 uM
EF2K = EF2K (Homo sapiens (Human), UniProt O00418); assay: Dundee profiling
PKCγ = PKCγ (Homo sapiens (Human), UniProt P05129); assay: Dundee profiling
IGF-1R = IGF-1R (Homo sapiens (Human), UniProt P08069); assay: Dundee profiling
IR = IR (Homo sapiens (Human), UniProt P06213); assay: Dundee profiling
MNK1 = MNK1 (Homo sapiens (Human), UniProt Q9BUB5); assay: Dundee profiling
MARK4 = MARK4 (Homo sapiens (Human), UniProt Q96L34); assay: KinomeScan; type: binding; conditions: 1 uM
[5] = target: EGFR (L747-S752del, P753S) (Homo sapiens (Human), UniProt P00533, DEL747-752/P753S); assay: KinomeScan; type: binding; conditions: 1 uM
CAMKKb = CAMKKb (Homo sapiens (Human), UniProt Q96RR4); assay: Dundee profiling
BTK = BTK (Homo sapiens (Human), UniProt Q06187); assay: Dundee profiling
NUAK1 = NUAK1 (Homo sapiens (Human), UniProt O60285); assay: Dundee profiling
TTBK1 = TTBK1 (Homo sapiens (Human), UniProt Q5TCY1); assay: Dundee profiling
ULK1 = ULK1 (Homo sapiens (Human), UniProt O75385); assay: KinomeScan; type: binding; conditions: 1 uM
ERK2 = ERK2 (Homo sapiens (Human), UniProt P28482); assay: Dundee profiling
CDK8 = CDK8 (Homo sapiens (Human), UniProt P49336); assay: KinomeScan; type: binding; conditions: 1 uM
CSNK1G2 = CSNK1G2 (Homo sapiens (Human), UniProt P78368); assay: KinomeScan; type: binding; conditions: 1 uM
EGFR (G719S) = EGFR (G719S) (Homo sapiens (Human), UniProt P00533, G719S); assay: KinomeScan; type: binding; conditions: 1 uM
ERK1 = ERK1 (Homo sapiens (Human), UniProt P27361); assay: Dundee profiling
S6K1 = S6K1 (Homo sapiens (Human), UniProt P23443); assay: Dundee profiling
RSK2 = RSK2 (Homo sapiens (Human), UniProt P51812); assay: Dundee profiling
wild type LRRK2 = wild type LRRK2 (Homo sapiens (Human), UniProt Q5S007); assay: LRRK2 enzyme kinase assay, wild type; type: biochemical; conditions: Table 1; ATP at Km 36 μm; read-out: Enzyme IC50 wt
ERK8 = ERK8 (Homo sapiens (Human), UniProt Q8TD08); assay: Dundee profiling
SIK = SIK (Homo sapiens (Human), UniProt P57059); assay: KinomeScan; type: binding; conditions: 1 uM
MST1 = MST1 (Homo sapiens (Human), UniProt Q13043); assay: KinomeScan; type: binding; conditions: 1 uM
TBK1 = TBK1 (Homo sapiens (Human), UniProt Q9UHD2); assay: Dundee profiling
ACVR2B = ACVR2B (Homo sapiens (Human), UniProt Q13705); assay: KinomeScan; type: binding; conditions: 1 uM
[6] = read-out: percent remaining enzymatic activity, I1, 1 μM
[7] = read-out: percent remaining enzymatic activity, I10
[8] = read-out: percent remaining enzymatic activity

TBK1, sequence (Q9UHD2 whole entry, looked up, species assumed): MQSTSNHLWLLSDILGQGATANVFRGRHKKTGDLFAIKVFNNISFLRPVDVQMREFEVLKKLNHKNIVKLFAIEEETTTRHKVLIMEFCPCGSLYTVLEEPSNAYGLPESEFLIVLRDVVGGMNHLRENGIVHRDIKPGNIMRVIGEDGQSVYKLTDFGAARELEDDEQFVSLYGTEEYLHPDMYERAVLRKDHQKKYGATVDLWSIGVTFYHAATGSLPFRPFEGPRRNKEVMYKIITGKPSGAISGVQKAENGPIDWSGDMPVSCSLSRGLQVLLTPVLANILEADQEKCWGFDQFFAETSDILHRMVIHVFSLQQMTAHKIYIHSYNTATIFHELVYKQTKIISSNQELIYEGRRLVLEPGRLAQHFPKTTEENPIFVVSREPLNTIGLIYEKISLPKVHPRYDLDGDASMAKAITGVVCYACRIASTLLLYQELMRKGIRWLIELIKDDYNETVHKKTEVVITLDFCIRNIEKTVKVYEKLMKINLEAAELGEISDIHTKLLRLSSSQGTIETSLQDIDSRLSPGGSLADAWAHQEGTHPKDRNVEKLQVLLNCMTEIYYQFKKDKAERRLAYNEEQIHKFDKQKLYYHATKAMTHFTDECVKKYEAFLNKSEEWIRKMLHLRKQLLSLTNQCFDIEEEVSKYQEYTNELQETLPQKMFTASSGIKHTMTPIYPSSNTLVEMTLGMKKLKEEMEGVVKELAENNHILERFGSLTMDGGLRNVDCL
NUAK1, sequence (O60285 whole entry, species assumed): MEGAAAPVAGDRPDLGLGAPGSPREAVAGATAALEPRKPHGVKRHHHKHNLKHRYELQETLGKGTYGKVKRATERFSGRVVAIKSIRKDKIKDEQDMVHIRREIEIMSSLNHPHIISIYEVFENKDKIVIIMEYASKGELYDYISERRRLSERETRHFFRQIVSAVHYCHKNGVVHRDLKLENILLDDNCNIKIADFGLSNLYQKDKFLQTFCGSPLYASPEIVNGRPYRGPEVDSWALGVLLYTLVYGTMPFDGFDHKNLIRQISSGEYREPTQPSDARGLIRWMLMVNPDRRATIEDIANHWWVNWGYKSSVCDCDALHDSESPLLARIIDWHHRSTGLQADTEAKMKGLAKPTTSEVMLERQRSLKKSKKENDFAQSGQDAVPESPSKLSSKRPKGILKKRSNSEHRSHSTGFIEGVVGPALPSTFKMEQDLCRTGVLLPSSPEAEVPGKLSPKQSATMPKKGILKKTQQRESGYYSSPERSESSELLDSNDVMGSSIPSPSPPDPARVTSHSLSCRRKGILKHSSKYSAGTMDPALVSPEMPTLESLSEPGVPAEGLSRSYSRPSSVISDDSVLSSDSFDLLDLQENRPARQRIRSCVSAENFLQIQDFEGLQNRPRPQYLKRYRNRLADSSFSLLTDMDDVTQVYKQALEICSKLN
IR, sequence (P06213 28-1382): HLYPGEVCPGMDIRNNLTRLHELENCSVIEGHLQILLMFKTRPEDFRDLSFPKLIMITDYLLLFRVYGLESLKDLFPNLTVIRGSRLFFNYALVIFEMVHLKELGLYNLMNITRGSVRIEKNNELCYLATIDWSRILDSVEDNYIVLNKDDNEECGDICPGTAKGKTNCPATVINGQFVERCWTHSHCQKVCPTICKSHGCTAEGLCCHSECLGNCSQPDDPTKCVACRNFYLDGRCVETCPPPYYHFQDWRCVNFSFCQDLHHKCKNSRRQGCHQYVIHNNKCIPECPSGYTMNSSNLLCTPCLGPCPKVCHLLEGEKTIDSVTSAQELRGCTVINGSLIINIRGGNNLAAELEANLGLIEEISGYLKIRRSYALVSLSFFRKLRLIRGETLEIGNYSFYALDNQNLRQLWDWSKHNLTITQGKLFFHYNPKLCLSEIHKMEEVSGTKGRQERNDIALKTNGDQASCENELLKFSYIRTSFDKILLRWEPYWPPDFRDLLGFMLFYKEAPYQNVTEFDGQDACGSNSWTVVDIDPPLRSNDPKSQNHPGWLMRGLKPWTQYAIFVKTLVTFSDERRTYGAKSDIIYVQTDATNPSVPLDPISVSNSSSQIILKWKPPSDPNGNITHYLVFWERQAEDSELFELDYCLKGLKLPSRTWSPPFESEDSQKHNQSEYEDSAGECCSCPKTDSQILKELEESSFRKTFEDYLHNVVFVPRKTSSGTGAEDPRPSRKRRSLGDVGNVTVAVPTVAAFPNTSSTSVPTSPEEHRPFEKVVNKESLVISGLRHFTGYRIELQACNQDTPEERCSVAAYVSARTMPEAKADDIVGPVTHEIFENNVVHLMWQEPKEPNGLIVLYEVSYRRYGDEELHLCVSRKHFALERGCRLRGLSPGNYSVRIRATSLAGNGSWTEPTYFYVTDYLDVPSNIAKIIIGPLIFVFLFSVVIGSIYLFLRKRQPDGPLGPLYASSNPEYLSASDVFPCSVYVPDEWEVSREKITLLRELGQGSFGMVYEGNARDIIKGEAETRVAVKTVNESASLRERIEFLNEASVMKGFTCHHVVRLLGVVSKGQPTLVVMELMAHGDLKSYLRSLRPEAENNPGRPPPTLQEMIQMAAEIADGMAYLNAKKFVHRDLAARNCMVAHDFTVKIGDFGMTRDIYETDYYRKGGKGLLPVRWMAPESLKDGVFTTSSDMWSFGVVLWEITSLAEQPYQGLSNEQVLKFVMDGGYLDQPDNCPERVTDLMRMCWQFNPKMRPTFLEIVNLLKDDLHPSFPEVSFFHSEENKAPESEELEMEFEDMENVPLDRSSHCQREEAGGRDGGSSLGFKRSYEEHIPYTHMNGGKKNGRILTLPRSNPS
ERK2, sequence (P28482 whole entry, looked up, species assumed): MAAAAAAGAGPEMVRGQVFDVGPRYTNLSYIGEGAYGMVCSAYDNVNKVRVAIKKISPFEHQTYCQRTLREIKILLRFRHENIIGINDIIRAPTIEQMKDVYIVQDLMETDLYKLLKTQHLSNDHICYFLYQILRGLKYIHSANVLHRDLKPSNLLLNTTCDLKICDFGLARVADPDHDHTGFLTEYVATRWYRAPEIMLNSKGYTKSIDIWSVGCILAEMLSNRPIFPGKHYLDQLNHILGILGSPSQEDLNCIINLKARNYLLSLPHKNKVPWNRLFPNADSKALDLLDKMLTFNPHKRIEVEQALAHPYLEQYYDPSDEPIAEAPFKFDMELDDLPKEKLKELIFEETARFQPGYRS
MLK1, sequence (P80192 whole entry, looked up, species assumed): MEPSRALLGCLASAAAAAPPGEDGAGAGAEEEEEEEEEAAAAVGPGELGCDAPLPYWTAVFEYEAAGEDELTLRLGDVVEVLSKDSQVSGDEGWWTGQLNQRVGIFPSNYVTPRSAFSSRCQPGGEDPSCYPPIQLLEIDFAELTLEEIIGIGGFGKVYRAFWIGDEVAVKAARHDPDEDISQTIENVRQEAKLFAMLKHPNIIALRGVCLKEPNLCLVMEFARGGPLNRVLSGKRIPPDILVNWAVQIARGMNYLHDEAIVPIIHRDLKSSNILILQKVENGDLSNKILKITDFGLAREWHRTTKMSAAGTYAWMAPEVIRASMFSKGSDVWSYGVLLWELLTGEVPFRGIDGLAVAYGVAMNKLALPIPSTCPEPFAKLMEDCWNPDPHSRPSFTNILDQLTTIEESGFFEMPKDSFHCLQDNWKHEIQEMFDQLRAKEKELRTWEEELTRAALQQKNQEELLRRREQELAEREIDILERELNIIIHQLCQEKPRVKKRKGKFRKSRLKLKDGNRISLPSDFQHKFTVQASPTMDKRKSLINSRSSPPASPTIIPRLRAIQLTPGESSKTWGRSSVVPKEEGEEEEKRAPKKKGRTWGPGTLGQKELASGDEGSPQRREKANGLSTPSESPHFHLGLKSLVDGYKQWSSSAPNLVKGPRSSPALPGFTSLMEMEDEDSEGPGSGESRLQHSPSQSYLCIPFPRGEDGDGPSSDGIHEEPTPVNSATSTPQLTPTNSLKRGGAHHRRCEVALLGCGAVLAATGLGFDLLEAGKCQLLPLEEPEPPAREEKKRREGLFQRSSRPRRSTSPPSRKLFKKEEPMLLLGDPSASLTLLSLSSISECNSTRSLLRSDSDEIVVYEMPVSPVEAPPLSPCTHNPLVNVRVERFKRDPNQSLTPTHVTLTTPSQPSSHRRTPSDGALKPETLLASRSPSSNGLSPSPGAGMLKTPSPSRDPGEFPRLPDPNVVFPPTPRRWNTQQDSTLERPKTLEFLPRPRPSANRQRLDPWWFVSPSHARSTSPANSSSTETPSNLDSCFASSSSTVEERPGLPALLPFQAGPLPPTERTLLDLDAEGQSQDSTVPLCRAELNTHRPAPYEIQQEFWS
MNK1, sequence (Q9BUB5 whole entry, species assumed): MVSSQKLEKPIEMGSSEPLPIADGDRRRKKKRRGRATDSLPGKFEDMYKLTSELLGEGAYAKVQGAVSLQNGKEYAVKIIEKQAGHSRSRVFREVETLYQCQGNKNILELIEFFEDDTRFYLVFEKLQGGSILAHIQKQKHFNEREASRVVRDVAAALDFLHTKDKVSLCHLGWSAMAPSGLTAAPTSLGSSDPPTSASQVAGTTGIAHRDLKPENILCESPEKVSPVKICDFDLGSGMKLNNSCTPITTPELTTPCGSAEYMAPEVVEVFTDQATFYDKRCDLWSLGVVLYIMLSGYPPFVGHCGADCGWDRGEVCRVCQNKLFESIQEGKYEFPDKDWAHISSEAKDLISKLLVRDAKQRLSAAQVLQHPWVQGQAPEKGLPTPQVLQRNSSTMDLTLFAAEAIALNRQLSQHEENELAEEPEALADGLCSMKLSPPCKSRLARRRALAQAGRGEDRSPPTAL
ERK1, sequence (P27361 whole entry, looked up, species assumed): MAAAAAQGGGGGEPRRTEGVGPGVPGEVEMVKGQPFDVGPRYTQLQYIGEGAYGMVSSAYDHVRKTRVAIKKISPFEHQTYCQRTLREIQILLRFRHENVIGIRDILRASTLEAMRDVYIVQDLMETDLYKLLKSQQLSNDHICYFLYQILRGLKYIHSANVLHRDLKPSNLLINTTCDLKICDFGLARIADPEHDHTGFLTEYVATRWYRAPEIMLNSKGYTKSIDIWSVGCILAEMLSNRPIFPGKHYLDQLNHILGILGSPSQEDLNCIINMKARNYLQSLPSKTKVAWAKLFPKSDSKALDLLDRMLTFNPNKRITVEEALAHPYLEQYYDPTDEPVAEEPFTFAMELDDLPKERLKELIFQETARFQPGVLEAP

## CNc1nc(Nc2ccc(C(=O)N3CCOCC3)cc2OC)nc2[nH]cc(Cl)c12 [Compound 18, (4-((5-chloro-4-(methylamino)-7H-pyrrolo[2,3-d]pyrimidin-2-yl)amino)-3-methoxyphenyl)(morpholino)methanone]
MARK1; [6]
  remaining activity at 1 µM: 89%
MARK1; [7]
  remaining activity at 1 µM: 77%
MLK1; [6]
  remaining activity at 1 µM: 81%
MLK1; [7]
  remaining activity at 1 µM: 38%
[1]
  IC50: 47.7 nM
[2]
  IC50: 2.2 nM
[3]
  IC50: 19.8 nM
[4]
  IC50: 6.6 nM
MKK7
  KinomeScan value: 100
JNK2
  KinomeScan value: 78
EF2K; [6]
  remaining activity at 1 µM: 105%
EF2K; [7]
  remaining activity at 1 µM: 102%
PKCγ; [6]
  remaining activity at 1 µM: 113%
PKCγ; [7]
  remaining activity at 1 µM: 109%
IGF-1R; [6]
  remaining activity at 1 µM: 13%
IGF-1R; [7]
  remaining activity at 1 µM: 9%
IR; [6]
  remaining activity at 1 µM: 21%
IR; [7]
  remaining activity at 1 µM: 10%
MNK1; [6]
  remaining activity at 1 µM: 102%
MNK1; [7]
  remaining activity at 1 µM: 78%
MARK4
  KinomeScan value: 82
[5]
  KinomeScan value: 94
CAMKKb; [6]
  remaining activity at 1 µM: 50%
CAMKKb; [7]
  remaining activity at 1 µM: 16%
BTK; I10
  percent remaining enzymatic activity: 126%
BTK; [8]
  remaining activity at 1 µM: 116%
NUAK1; I10
  percent remaining enzymatic activity: 17%
NUAK1; [8]
  remaining activity at 1 µM: 75%
TTBK1; [6]
  remaining activity at 1 µM: 103%
TTBK1; [7]
  remaining activity at 1 µM: 98%
ULK1
  KinomeScan value: 100
ERK2; [6]
  remaining activity at 1 µM: 94%
ERK2; [7]
  remaining activity at 1 µM: 71%
CDK8
  KinomeScan value: 74
CSNK1G2
  KinomeScan value: 100
EGFR (G719S)
  KinomeScan value: 88
ERK1; [6]
  remaining activity at 1 µM: 107%
ERK1; [7]
  remaining activity at 1 µM: 68%
S6K1; [6]
  remaining activity at 1 µM: 106%
S6K1; [7]
  remaining activity at 1 µM: 102%
RSK2; [6]
  remaining activity at 1 µM: 117%
RSK2; [7]
  remaining activity at 1 µM: 94%
Wild type LRRK2
  IC50: 6.5 nM
ERK8; [6]
  remaining activity at 1 µM: 108%
ERK8; [7]
  remaining activity at 1 µM: 71%
SIK
  KinomeScan value: 94
MST1
  KinomeScan value: 100
TBK1; [6]
  remaining activity at 1 µM: 88%
TBK1; [7]
  remaining activity at 1 µM: 67%
ACVR2B
  KinomeScan value: 100
